Experimental data from patent publication US20240076630A1, “METHODS FOR GENERATING NEURAL TISSUE AND USES THEREOF” (priority 2015, published 2024).

Tested on: human brain organoids
Type: cell-based

2,3-Dioxo-6-nitro-1,2,3,4-tetrahydrobenzo[f]quinoxaline-7-sulfonamide disodium salt [NBQX]
mean spiking rate (NBQX 20 μM, n=9 units, p<0.05, two-tailed Wilcoxon signed rank test, FIG. 4D bottom panel legend): attenuated | NBQX-treated median firing rate (bath application of 20 μM NBQX, 95% CI 0.0023 to 0.2048, n=12 units from 4 organoids): 0.0733 Hz | reduction of the median mean firing rate (bath application of 20 μM NBQX, vs baseline median firing rate 0.3800 Hz, p=0.0005, n=12 units from 4 organoids): 81%

Tetrodotoxin citrate [TTX]
spike rate: suppressed
